Laboratory results from patent US20250235460A1, “COMBINATION THERAPY USING GLUCOSE-DEPENDENT INSULINOTROPIC POLYPEPTIDE RECEPTOR ANTAGONIST COMPOUNDS AND GLP-1 RECEPTOR AGONIST COMPOUNDS” (Pfizer Inc., priority 2024, published 2025).

Key:
human GLP-1R [1] = molecular target: human GLP-1R (Homo sapiens, UniProt P43220, L260F); test: CHO GLP-1R Clone C6 cAMP HTRF agonist assay (Assay 2, low receptor density); assay type: cell-based; settings: for EC50: CHO GLP-1R clone C6, cAMP HTRF, geometric mean; for Emax: CHO GLP-1R clone C6, arithmetic mean, relative to saturating GLP-1 (1 μM)
Sequence of human GLP-1R (Homo sapiens, UniProt P43220, L260F) (P43220 24-463 L260F): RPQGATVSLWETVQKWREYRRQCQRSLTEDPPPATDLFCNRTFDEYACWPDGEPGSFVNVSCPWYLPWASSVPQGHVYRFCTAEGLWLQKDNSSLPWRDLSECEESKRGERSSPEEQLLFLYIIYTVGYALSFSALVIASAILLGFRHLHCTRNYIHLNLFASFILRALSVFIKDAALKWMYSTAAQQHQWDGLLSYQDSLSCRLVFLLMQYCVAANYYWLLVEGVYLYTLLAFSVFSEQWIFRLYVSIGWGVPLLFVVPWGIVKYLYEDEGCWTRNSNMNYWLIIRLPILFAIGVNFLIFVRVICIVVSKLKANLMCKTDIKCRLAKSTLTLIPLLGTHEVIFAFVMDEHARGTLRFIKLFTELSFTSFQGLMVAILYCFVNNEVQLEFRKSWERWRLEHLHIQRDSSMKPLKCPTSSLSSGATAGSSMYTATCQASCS
Text: In Table 5 and Table 6, assay data are presented to two (2) significant figures as the geometric mean (EC50s) and arithmetic mean (Emax) based on the number of replicates listed (Number). A blank cell means there was no data for that Example or the Emax was not calculated.

human GLP-1R [2] = molecular target: human GLP-1R (Homo sapiens, UniProt P43220, G168S); test: CHO GLP-1R Clone H6 cAMP HTRF agonist assay (Assay 1, high receptor density); assay type: cell-based; settings: for EC50: CHO GLP-1R clone H6, cAMP HTRF, geometric mean; for Emax: CHO GLP-1R clone H6, arithmetic mean, relative to saturating GLP-1 (1 μM), read-out: Assay 1 Emax (%)
Sequence of human GLP-1R (Homo sapiens, UniProt P43220, G168S) (P43220 24-463 G168S): as the sequence (P43220 24-463 L260F) above, with G145S, F237L counted along it
Outline: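 EC50 values are reported as geometric means and Emax as arithmetic means across the listed number of replicates, both given to two significant figures.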

SMILES	EC50 (human GLP-1R [1])	Emax (human GLP-1R [1])	EC50 (human GLP-1R [2])	Emax (human GLP-1R [2])
N#Cc1ccc(COc2cccc(C3CCN(Cc4nc5ccc(C(=O)O)nc5n4C[C@@H]4CCO4)CC3)n2)c(F)c1 [Compound 114B, 2-[(4-{6-[(4-cyano-2-fluorobenzyl)oxy]pyridin-2-yl}piperidin-1-yl)methyl]-3-[(2S)-oxetan-2-ylmethyl]-3H-imidazo[4,5-b]pyridine-5-carboxylic acid]	120 nM	85%	7.1 nM	81%
COCCn1c(CN2CCC(c3cccc(OCc4ccc(C#N)c(C)c4)n3)CC2)nc2ccc(C(=O)O)cc21 [Compound 218B, 2-((4-(6-((4-cyano-3-methylbenzyl)oxy)pyridin-2-yl)piperidin-1-yl)methyl)-1-(2-methoxyethyl)-1H-benzo[d]imidazole-6-carboxylic acid]	29 nM	95%	1.5 nM	–
Cn1c(CN2CCC(c3cccc(OCc4ccc(Cl)cc4)n3)CC2)nc2ccc(C(=O)O)cc21 [Compound 225B, 2-[(4-{6-[(4-chlorobenzyl)oxy]pyridin-2-yl}piperidin-1-yl)methyl]-1-methyl-1H-benzimidazole-6-carboxylic acid]	140 nM	82%	12 nM	75%
N#Cc1ccc(COc2nc(C3CCN(Cc4nc5ccc(C(=O)O)cc5n4CC4CCCO4)CC3)ccc2F)cc1 (centres unmarked) [Compound 360B, 2-[(4-{6-[(4-cyanobenzyl)oxy]-5-fluoropyridin-2-yl}piperidin-1-yl)methyl]-1-(tetrahydrofuran-2-ylmethyl)-1H-benzimidazole-6-carboxylic acid]	–	84%	–	72%
COCCn1c(CN2CCC(c3cccc(OCc4ccc(Cl)cc4F)n3)CC2)nc2ccc(C(=O)O)c(F)c21 [Compound 170B, 2-[(4-{6-[(4-chloro-2-fluorobenzyl)oxy]pyridin-2-yl}piperidin-1-yl)methyl]-7-fluoro-1-(2-methoxyethyl)-1H-benzimidazole-6-carboxylic acid]	4000 nM	75%	79 nM	81%
N#Cc1ccc(COc2cccc(C3CCN(Cc4nc5ccc(C(=O)O)cc5n4C[C@@H]4CCCO4)CC3)n2)cc1 [Compound 131B, 2-[(4-{6-[(4-cyanobenzyl)oxy]pyridin-2-yl}piperidin-1-yl)methyl]-1-[(2S)-tetrahydrofuran-2-ylmethyl]-1H-benzimidazole-6-carboxylic acid]	1000 nM	84%	45 nM	65%
N#Cc1ccc(COc2cccc(C3CCN(Cc4nc5ccc(C(=O)O)cc5n4C[C@H]4CCO4)CC3)n2)c(F)c1 [Compound 111B, 2-[(4-{6-[(4-cyano-2-fluorobenzyl)oxy]pyridin-2-yl}piperidin-1-yl)methyl]-1-[(2R)-oxetan-2-ylmethyl]-1H-benzimidazole-6-carboxylic acid]	–	67%	–	75%
N#Cc1ccc(COc2cccc(N3CCN(Cc4nc5ccc(C(=O)O)cc5n4Cc4ncco4)CC3)n2)c(F)c1 [Compound 140B, 2-[(4-{6-[(4-cyano-2-fluorobenzyl)oxy]pyridin-2-yl}piperazin-1-yl)methyl]-1-(1,3-oxazol-2-ylmethyl)-1H-benzimidazole-6-carboxylic acid]	150 nM	92%	36 nM	84%
C[C@H]1CN(c2cccc(OCc3ccc(F)cc3F)n2)CCN1Cc1nc2ccc(C(=O)O)cc2n1C[C@@H]1CCO1 [Compound 134B, 2-{[(2S)-4-{6-[(2,4-difluorobenzyl)oxy]pyridin-2-yl}-2-methylpiperazin-1-yl]methyl}-1-[(2S)-oxetan-2-ylmethyl]-1H-benzimidazole-6-carboxylic acid]	7700 nM	100%	300 nM	92%
Cn1c(CN2CCC(c3cccc(OCc4ccccc4F)n3)CC2)nc2ccc(C(=O)O)cc21 [Compound 226B, 2-[(4-{6-[(2-fluorobenzyl)oxy]pyridin-2-yl}piperidin-1-yl)methyl]-1-methyl-1H-benzimidazole-6-carboxylic acid]	29 nM	74%	2.7 nM	73%
C[C@H]1CN(c2cccc(OCc3ccc(C#N)cc3F)n2)CCN1Cc1nc2ccc(C(=O)O)cc2n1CC1CCCO1 (stereo partly drawn) [Compound 364B, 2-{[(2S)-4-{6-[(4-cyano-2-fluorobenzyl)oxy]pyridin-2-yl}-2-methylpiperazin-1-yl]methyl}-1-(tetrahydrofuran-2-ylmethyl)-1H-benzimidazole-6-carboxylic acid]	20 nM	–	1.4 nM	–

More lines, now with the values ahead:

EC50 (human GLP-1R [1])	Emax (human GLP-1R [1])	EC50 (human GLP-1R [2])	Emax (human GLP-1R [2])	SMILES
9.7 nM	100%	0.9 nM	94%	CC(C)n1c(CN2CCC(c3cccc(OCc4ccc(Cl)cc4F)n3)CC2)nc2ccc(C(=O)O)cc21 [Compound 258B, 2-[(4-{6-[(4-chloro-2-fluorobenzyl)oxy]pyridin-2-yl}piperidin-1-yl)methyl]-1-(propan-2-yl)-1H-benzimidazole-6-carboxylic acid]
3100 nM	110%	87 nM	–	O=C(O)c1ccc2nc(CN3CCC(c4cccc(OCc5ccc(Cl)cc5F)n4)CC3)n(CCN3CCOC3=O)c2c1 [Compound 295B, 2-[(4-{6-[(4-chloro-2-fluorobenzyl)oxy]pyridin-2-yl}piperidin-1-yl)methyl]-1-[2-(2-oxo-1,3-oxazolidin-3-yl)ethyl]-1H-benzimidazole-6-carboxylic acid]
1500 nM	81%	72 nM	76%	COCCn1cnnc1Cn1c(CN2CCC(c3cccc(OCc4ccc(Cl)cc4F)n3)CC2)nc2ccc(C(=O)O)cc21 [Compound 294B, 2-[(4-{6-[(4-chloro-2-fluorobenzyl)oxy]pyridin-2-yl}piperidin-1-yl)methyl]-1-{[4-(2-methoxyethyl)-4H-1,2,4-triazol-3-yl]methyl}-1H-benzimidazole-6-carboxylic acid]
590 nM	85%	56 nM	81%	CCOC(C)Cn1c(CN2CCC(c3cccc(OCc4ccc(Cl)cc4F)n3)CC2)nc2ccc(C(=O)O)cc21 (centres unmarked) [Compound 293B, 2-[(4-{6-[(4-chloro-2-fluorobenzyl)oxy]pyridin-2-yl}piperidin-1-yl)methyl]-1-(2-ethoxypropyl)-1H-benzimidazole-6-carboxylic acid]
5600 nM	76%	450 nM	71%	O=C(O)c1ccc2nc(CN3CCC(c4cccc(OCc5ccc(Cl)cc5F)n4)CC3)n(CCc3c[nH]cn3)c2c1 [Compound 316B, 2-[(4-{6-[(4-chloro-2-fluorobenzyl)oxy]pyridin-2-yl}piperidin-1-yl)methyl]-1-[2-(1H-imidazol-4-yl)ethyl]-1H-benzimidazole-6-carboxylic acid]
10 nM	89%	0.7 nM	86%	Cc1cc(Cn2c(CN3CCC(c4cccc(OCc5ccc(Cl)cc5F)n4)CC3)nc3ccc(C(=O)O)cc32)[nH]n1 [Compound 333B, 2-[(4-{6-[(4-chloro-2-fluorobenzyl)oxy]pyridin-2-yl}piperidin-1-yl)methyl]-1-[(3-methyl-1H-pyrazol-5-yl)methyl]-1H-benzimidazole-6-carboxylic acid]
21 nM	84%	5.3 nM	76%	Cc1cc(C)n(CCn2c(CN3CCC(c4cccc(OCc5ccc(Cl)cc5F)n4)CC3)nc3ccc(C(=O)O)cc32)n1 [Compound 332B, 2-[(4-{6-[(4-chloro-2-fluorobenzyl)oxy]pyridin-2-yl}piperidin-1-yl)methyl]-1-[2-(3,5-dimethyl-1H-pyrazol-1-yl)ethyl]-1H-benzimidazole-6-carboxylic acid]
1600 nM	46%	140 nM	72%	Cn1cncc1Cn1c(CN2CCC(c3cccc(OCc4ccc(Cl)cc4F)n3)CC2)nc2ccc(C(=O)O)cc21 [Compound 143B, 2-[(4-{6-[(4-chloro-2-fluorobenzyl)oxy]pyridin-2-yl}piperidin-1-yl)methyl]-1-[(1-methyl-1H-imidazol-5-yl)methyl]-1H-benzimidazole-6-carboxylic acid]
380 nM	96%	11 nM	65%	O=C(O)c1ccc2nc(CN3CCC(c4cccc(OCc5ccc(Cl)cc5F)n4)CC3)n(CCC3CCCCO3)c2c1 (centres unmarked) [Compound 280B, 2-[(4-{6-[(4-chloro-2-fluorobenzyl)oxy]pyridin-2-yl}piperidin-1-yl)methyl]-1-[2-(tetrahydro-2H-pyran-2-yl)ethyl]-1H-benzimidazole-6-carboxylic acid]
150 nM	100%	7.9 nM	80%	O=C(O)c1ccc2nc(CN3CCC(c4cccc(OCc5ccc(Cl)cc5F)n4)CC3)n(Cc3cocn3)c2c1 [Compound 155B, 2-[(4-{6-[(4-chloro-2-fluorobenzyl)oxy]pyridin-2-yl}piperidin-1-yl)methyl]-1-(1,3-oxazol-4-ylmethyl)-1H-benzimidazole-6-carboxylic acid]
84 nM	83%	4.7 nM	71%	CN1CC(Cn2c(CN3CCC(c4cccc(OCc5ccc(Cl)cc5F)n4)CC3)nc3ccc(C(=O)O)cc32)C1 [Compound 243B, 2-[(4-{6-[(4-chloro-2-fluorobenzyl)oxy]pyridin-2-yl}piperidin-1-yl)methyl]-1-[(1-methylazetidin-3-yl)methyl]-1H-benzimidazole-6-carboxylic acid]
